Laboratory results from US20130029970A1 (priority 2009, published 2013).
Where two headings read alike, the source gives them in different places.

Columns and labels:
human CB1 receptors = target: T1, human CB1 receptors (Homo sapiens, UniProt P21554); assay: cAMP assay in HEK-293 cells, hCB1 agonist; type: cell-based
T1 construct: (cDNA clone) CNR01L000
In short: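 Agonist EC50 taken as concentration giving half inhibition of forskolin-driven cAMP, normalized to forskolin maximum, from sigmoidal curves. Whole HEK-293 cells stably expressing hCB1, in HEPES/BSA-containing HBSS, exposed 30 min at 37° C. to compound with forskolin (90 uM in 3× dilution); cAMP read after lysis.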

[1] = target: T2, recombinant human cannabinoid receptor CB2 (Homo sapiens, UniProt P34972); assay: Cannabinoid receptor radioligand binding assay, [3H]-CP 55,940 displacement, hCB2
T2 construct: (cDNA clone) CNR0200000
T2 sequence (P34972 whole entry): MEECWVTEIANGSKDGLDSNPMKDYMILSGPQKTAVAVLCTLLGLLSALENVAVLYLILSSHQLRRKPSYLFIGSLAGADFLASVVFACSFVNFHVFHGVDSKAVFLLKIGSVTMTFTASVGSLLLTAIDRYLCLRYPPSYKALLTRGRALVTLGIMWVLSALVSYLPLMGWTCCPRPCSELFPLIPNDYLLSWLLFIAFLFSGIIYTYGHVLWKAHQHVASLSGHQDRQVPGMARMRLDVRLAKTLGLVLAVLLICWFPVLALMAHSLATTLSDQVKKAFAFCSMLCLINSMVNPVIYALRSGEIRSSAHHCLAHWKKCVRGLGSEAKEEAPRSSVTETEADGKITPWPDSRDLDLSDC
In short: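 Receptor source: membrane pellet (40,000×g) from transfected cells, stored in HEPES pH 7.4/MgCl2/EDTA/sucrose buffer.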

[2] = target: T3, recombinant human cannabinoid receptor CB1 (Homo sapiens, UniProt P21554); assay: Cannabinoid receptor radioligand binding assay, [3H]-CP 55,940 displacement, hCB1
T3 construct: (cDNA clone) CNR01L000
T3 sequence (P21554 whole entry): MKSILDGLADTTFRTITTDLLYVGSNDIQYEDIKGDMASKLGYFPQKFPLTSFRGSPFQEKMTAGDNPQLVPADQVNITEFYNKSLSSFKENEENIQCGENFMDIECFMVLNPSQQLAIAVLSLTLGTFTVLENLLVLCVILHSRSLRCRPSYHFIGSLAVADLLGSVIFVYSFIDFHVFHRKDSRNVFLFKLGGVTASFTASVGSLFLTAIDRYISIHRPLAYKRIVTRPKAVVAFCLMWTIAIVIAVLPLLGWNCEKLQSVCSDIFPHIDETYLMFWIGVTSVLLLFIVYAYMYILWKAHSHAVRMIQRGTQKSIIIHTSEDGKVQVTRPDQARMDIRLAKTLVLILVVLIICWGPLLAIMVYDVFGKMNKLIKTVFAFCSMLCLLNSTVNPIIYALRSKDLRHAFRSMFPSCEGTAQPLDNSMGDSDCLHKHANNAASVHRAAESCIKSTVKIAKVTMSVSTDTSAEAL
In short: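 Displacement of 0.5 nM [3H]-CP 55,940 (1 μM unlabeled CP 55,940 for nonspecific) measured by filtration and scintillation counting. Binding ran 90 min at room temperature in pH 7.5 Tris buffer with 0.1% fatty-acid-free BSA, using recombinant hCB1 HEK-293 membranes at 2-10 μg protein.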

[3] = inhibition of forskolin-stimulated cAMP, HEK-293 cells, read-out: hCB1 EC50 (cAMP ag)
[4] = inhibition of forskolin-stimulated cAMP, HEK-293 cells

T1 sequence (P21554 whole entry): as above

Compound | EC50 (human CB1 receptors; [3]) | IC50 [1] | IC50 [2] | hCB1 EC50 (cAMP ag, nM) (human CB1 receptors; [4]) | EC50 (human CB1 receptors)
Cc1cc2cc(C(=O)c3ccccc3OC(F)(F)F)sc2n1CCN1CCOCC1 [Compound 15, (5-Methyl-6-(2-morpholinoethyl)-6H-thieno[2,3-b]pyrrol-2-yl)(2-(trifluoromethoxy)phenyl)methanone] | 0.1 to 1 µM | < 0.1 µM | < 0.1 µM | – | –
Cc1cc2cc(C(=O)c3cccnc3Cl)sc2n1CCN1CCOCC1 [Compound 17, (2-Chloropyridin-3-yl)(5-methyl-6-(2-morpholinoethyl)-6H-thieno[2,3-b]pyrrol-2-yl)methanone] | – | 0.1 to 1 µM | > 10 µM | NS (NS means “Not Significant,” which means less than 30% agonist activity when compared to the positive control.) | –
Cc1cc2cc(C(=O)c3cccc(Cl)c3Cl)sc2n1CCC1CCOCC1 [Compound 18, (2,3-Dichlorophenyl)(5-methyl-6-(2-(tetrahydro-2H-pyran-4-yl)ethyl)-6H-thieno[2,3-b]pyrrol-2-yl)methanone] | 0.1 to 1 µM | < 0.1 µM | 0.1 to 1 µM | – | –
COCCn1c(C)cc2cc(C(=O)c3cccc(Cl)c3Cl)sc21 [Compound 21, (2,3-Dichlorophenyl)(6-(2-methoxyethyl)-5-methyl-6H-thieno[2,3-b]pyrrol-2-yl)methanone] | 1 to 10 µM | 0.1 to 1 µM | 0.1 to 1 µM | – | –
Cc1cc2cc(C(=O)c3cccc(Cl)c3Cl)sc2n1CCN1CCCCC1 [Compound 23, (2,3-Dichlorophenyl)(5-methyl-6-(2-(piperidin-1-yl)ethyl)-6H-thieno[2,3-b]pyrrol-2-yl)methanone] | – | < 0.1 µM | 0.1 to 1 µM | NS (NS means “Not Significant,” which means less than 30% agonist activity when compared to the positive control.) | –
Cc1cc2cc(C(=O)c3cccc(Cl)c3Cl)sc2n1CC1CCCCN1C (stereo not drawn) [Compound 24, (2,3-Dichlorophenyl)(5-methyl-6((1-methylpiperidin-2-yl)methyl)-6H-thieno[2,3-b]pyrrol-2-yl)methanone] | – | < 0.1 µM | 0.1 to 1 µM | NS (NS means “Not Significant,” which means less than 30% agonist activity when compared to the positive control.) | –
Cc1c(Cl)c2cc(C(=O)c3cccc(Cl)c3Cl)sc2n1CCN1CCOCC1 [Compound 27, (4-chloro-5-methyl-6-(2-morpholinoethyl)-6H-thieno[2,3-b]pyrrol-2-yl)(2,3-dichlorophenyl)methanone] | – | < 0.1 µM | < 0.1 µM | – | 0.1 to 1 µM
Cc1cc2cc(C(=O)c3cccc(Cl)c3Cl)sc2n1CCN1CCCC1 [Compound 28, (2,3-Dichlorophenyl)(5-methyl-6-(2-(pyrrolidin-1-yl)ethyl)-6H-thieno[2,3-b]pyrrol-2-yl)methanone] | – | < 0.1 µM | 0.1 to 1 µM | NS (NS means “Not Significant,” which means less than 30% agonist activity when compared to the positive control.) | –
Cc1cc2cc(C(=O)c3cc(Cl)ccc3Cl)sc2n1CCN1CCOCC1 [Compound 35, (2,5-Dichlorophenyl)(5-methyl-6-(2-morpholinoethyl)-6H-thieno[2,3-b]pyrrol-2-yl)methanone] | – | < 0.1 µM | 0.1 to 1 µM | NS (NS means “Not Significant,” which means less than 30% agonist activity when compared to the positive control.) | –
COc1ccc(C(=O)c2cc3cc(C)n(CCN4CCOCC4)c3s2)cc1 [Compound 36, (4-methoxyphenyl)(5-methyl-6-(2-morpholinoethyl)-6H-thieno[2,3-b]pyrrol-2-yl)methanone] | – | < 0.1 µM | 1 to 10 µM | – | 1 to 10 µM
Cc1cc2cc(C(=O)c3cccc(Cl)c3Cl)sc2n1S(=O)(=O)N(C)C [Compound 41, 2-(2,3-Dichlorobenzoyl)-N,N,5-trimethyl-6H-thieno[2,3-b]pyrrole-6-sulfonamide] | 1 to 10 µM | < 0.1 µM | 0.1 to 1 µM | – | –
Cc1cc2cc(C(=O)c3ccccc3N)sc2n1CCN1CCOCC1 [Compound 48, (2-Aminophenyl)(5-methyl-6-(2-morpholinoethyl)-6H-thieno[2,3-b]pyrrol-2-yl)methanone] | 1 to 10 µM | < 0.1 µM | > 10 µM | – | –
COCCn1c(C)cc2cc(C(=O)c3ccc(OC)cc3)sc21 [Compound 49, (6-(2-Methoxyethyl)-5-methyl-6H-thieno[2,3-b]pyrrol-2-yl)(4-methoxyphenyl)methanone] | – | 1 to 10 µM | > 10 µM | NS (NS means “Not Significant,” which means less than 30% agonist activity when compared to the positive control.) | –
COc1ccc(C(=O)c2cc3cc(C)n(CCN4CCOC4=O)c3s2)cc1 [Compound 50, 3-(2-(2-(4-Methoxybenzoyl)-5-methyl-6H-thieno[2,3-b]pyrrol-6-yl)ethyl)oxazolidin-2-one] | – | 1 to 10 µM | > 10 µM | NS (NS means “Not Significant,” which means less than 30% agonist activity when compared to the positive control.) | –
CCOc1ccc(C(=O)c2cc3cc(C)n(CCN4CCOCC4)c3s2)cc1 [Compound 55, (4-Ethoxyphenyl)(5-methyl-6-(2-morpholinoethyl)-6H-thieno[2,3-b]pyrrol-2-yl)methanone] | 1 to 10 µM | 0.1 to 1 µM | 1 to 10 µM | – | –
Cc1cc2cc(C(=O)c3ccc(N(C)C)cc3)sc2n1CCN1CCOCC1 [Compound 59, (4-(Dimethylamino)phenyl)(5-methyl-6-(2-morpholinoethyl)-6H-thieno[2,3-b]pyrrol-2-yl)methanone] | – | 1 to 10 µM | > 10 µM | NS (NS means “Not Significant,” which means less than 30% agonist activity when compared to the positive control.) | –
Cc1cc2cc(C(=O)c3ccc(F)cc3Cl)sc2n1CCN1CCOCC1 [Compound 64, (2-Chloro-4-fluorophenyl)(5-methyl-6-(2-morpholinoethyl)-6H-thieno[2,3-b]pyrrol-2-yl)methanone] | 0.1 to 1 µM | < 0.1 µM | 1 to 10 µM | – | –
Cc1cc2cc(C(=O)c3ccc(OC(F)(F)F)cc3)sc2n1CCN1CCOCC1 [Compound 65, (5-Methyl-6-(2-morpholinoethyl)-6H-thieno[2,3-b]pyrrol-2-yl)(4-(trifluoromethoxy)phenyl)methanone] | – | 0.1 to 1 µM | 1 to 10 µM | NS (NS means “Not Significant,” which means less than 30% agonist activity when compared to the positive control.) | –
COc1ccc(C(=O)c2cc3cc(C)n(CCN4CCOCC4)c3s2)c(F)c1 [Compound 68, (2-Fluoro-4-methoxyphenyl)(5-methyl-6-(2-morpholinoethyl)-6H-thieno[2,3-b]pyrrol-2-yl)methanone] | 1 to 10 µM | < 0.1 µM | 1 to 10 µM | – | –
COc1ccc(C(=O)c2cc3cc(C)n(CCNS(C)(=O)=O)c3s2)cc1 [Compound 71, N-(2-(2-(4-Methoxybenzoyl)-5-methyl-6H-thieno[2,3-b]pyrrol-6-yl)ethyl)methanesulfonamide] | – | 1 to 10 µM | > 10 µM | NS (NS means “Not Significant,” which means less than 30% agonist activity when compared to the positive control.) | –
CCOC(=O)CCn1c(C)cc2cc(C(=O)c3ccc(OC)cc3)sc21 [Compound 72, Ethyl 3-(2-(4-methoxybenzoyl)-5-methyl-6H-thieno[2,3-b]pyrrol-6-yl)propanoate] | – | 1 to 10 µM | > 10 µM | NS (NS means “Not Significant,” which means less than 30% agonist activity when compared to the positive control.) | –
COc1ccc(C(=O)c2cc3cc(C)n(CCCNC(=O)C(F)(F)F)c3s2)cc1 [Compound 76, 2,2,2-Trifluoro-N-(3-(2-(4-methoxybenzoyl)-5-methyl-6H-thieno[2,3-b]pyrrol-6-yl)propyl)acetamide] | – | 0.1 to 1 µM | 1 to 10 µM | NS (NS means “Not Significant,” which means less than 30% agonist activity when compared to the positive control.) | –
COc1ccc(C(=O)c2cc3cc(C)n(CCC(C)(C)O)c3s2)cc1 [Compound 77, (6-(3-Hydroxy-3-methylbutyl)-5-methyl-6H-thieno[2,3-b]pyrrol-2-yl)(4-methoxyphenyl)methanone] | 1 to 10 µM | 1 to 10 µM | 1 to 10 µM | – | –
Cc1ccc(C(=O)c2cc3cc(C)n(CCN4CCOCC4)c3s2)c(F)c1 [Compound 80, (2-Fluoro-4-methylphenyl)(5-methyl-6-(2-morpholinoethyl)-6H-thieno[2,3-b]pyrrol-2-yl)methanone] | – | 0.1 to 1 µM | 1 to 10 µM | NS (NS means “Not Significant,” which means less than 30% agonist activity when compared to the positive control.) | –
COc1ccc(C(=O)c2cc3cc(C)n(CCN4CCCC4)c3s2)cc1 [Compound 83, (4-Methoxyphenyl)(5-methyl-6-(2-(pyrrolidin-1-yl)ethyl)-6H-thieno[2,3-b]pyrrol-2-yl)methanone] | 1 to 10 µM | 0.1 to 1 µM | 1 to 10 µM | – | –
Cc1ccc(C(=O)c2cc3cc(C)n(CCN4CCOCC4)c3s2)c(Cl)c1 [Compound 86, (2-Chloro-4-methylphenyl)(5-methyl-6-(2-morpholinoethyl)-6H-thieno[2,3-b]pyrrol-2-yl)methanone] | 1 to 10 µM | < 0.1 µM | 0.1 to 1 µM | – | –
